In patent US20050119321A1, “2-substituted-1,3-thiazole compounds” (priority 2002, published 2005) one finds melting point data, which are given here for three compounds.

For orientation: melting point means the temperature, or range, at which the solid turns liquid. On to `COc1ccc(Nc2nc(N)c(C(C)=O)s2)cc1` [Example 3, 1-{4-Amino-2-[(4-methoxyphenyl)amino]-1,3-thiazol-5-yl}ethanone], for which the melting point was 180 °C (dec.). Consider `COc1ccc(CCCC(=O)Nc2ncc([N+](=O)[O-])s2)cc1` [Example 6, 4-(4-Methoxyphenyl)-N-(5-nitro-1,3-thiazol-2-yl)butanamide], for which the melting point fell in the range of 176 to 177 °C.

For the compound `COc1ccc(CCC(=O)Nc2ncc([N+](=O)[O-])s2)cc1` [Example 5, 3-(4-Methoxyphenyl)-N-(5-nitro-1,3-thiazol-2-yl)propanamide], the melting point was 224 to 227 °C (dec.).
